Laboratory results: ChEMBL document CHEMBL1201862, “PubChem BioAssay data set” (2004)
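Each compound was tested at five concentrations against cells in 96-well plates for 48 hours. Abbreviation: GI50, concentration required for 50% inhibition of growth.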 Active and inactive are the calls of the source. No stated cut-off is given here; in the data, active = GI50 up to about 1.1 µM and inactive = higher.

How the values were obtained:
Test in all cases: DTP human tumour cell line panel, 48 h
SNB-78 = tested on: SNB-78
DMS-114 = tested on: DMS-114
DLD-1 = tested on: DLD-1
XF498 = tested on: XF498
RXF 631 = tested on: RXF 631
LXFL 529 = tested on: LXFL 529
KM-20L2 = tested on: KM-20L2
M19-MEL = tested on: M19-MEL
HOP-18 = tested on: HOP-18

Compound | GI50 (SNB-78) | GI50 (DMS-114) | GI50 (DLD-1) | GI50 (XF498) | GI50 (RXF 631) | GI50 (LXFL 529) | GI50 (KM-20L2) | GI50 (M19-MEL) | GI50 (HOP-18)
COC(=O)NC1C(C)OC(OC2C/C=C(/C)C3C=CC4C(OC5CC(OC6CC(O)C(OC7CC(O)C(OC)C(C)O7)C(C)O6)C(O)C(C)O5)C(C)CC(C)C4C3(C)C(=O)C3=C(O)C4(CC(C)C(CO)=CC4/C=C\2C)OC3=O)CC1(C)[N+](=O)[O-] (stereo not given) | 5.47 µM (inactive) | 2.5 µM (inactive) | 12.7 µM (inactive) | 10.6 µM (inactive) | 21 µM (inactive) | 2.7 µM (inactive) | 17.1 µM (inactive) | 4.43 µM (inactive) | 15.1 µM (inactive)
O=C1CCCC2COc3ccc(O)c1c32 (stereo not given) | > 100 µM (inactive) | > 100 µM (inactive) | > 100 µM (inactive) |  | > 100 µM (inactive) |  | > 100 µM (inactive) | > 100 µM (inactive) | 
COc1ccccc1/C=C/C(=O)c1sc(-c2cccnc2)nc1C | > 100 µM (inactive) | > 100 µM (inactive) | > 100 µM (inactive) |  |  |  | > 100 µM (inactive) | > 100 µM (inactive) | 76.6 µM (inactive)
C/C(=C1/N=C(c2cc([N+](=O)[O-])ccc2Cl)N(c2ccc(Br)cc2)C1=O)c1ccc(N(CCC#N)CCC#N)cc1C | 40.6 µM (inactive) | 12.3 µM (inactive) | 15.9 µM (inactive) | 4.71 µM (inactive) | > 100 µM (inactive) | 8.11 µM (inactive) | 16.1 µM (inactive) | 29.1 µM (inactive) | 76.9 µM (inactive)
CCCCCCN(N)C(=O)CC#N | > 100 µM (inactive) | 32.2 µM (inactive) | 87.3 µM (inactive) |  | 98.9 µM (inactive) | > 100 µM (inactive) | > 100 µM (inactive) | > 100 µM (inactive) | > 100 µM (inactive)
C[N+](C)(C)CC(=O)N/N=C(/Cc1nc2ccc([N+](=O)[O-])cc2nc1O)C(=O)Nc1cc(C(F)(F)F)ccc1Cl |  | 75 µM (inactive) | > 100 µM (inactive) |  | > 100 µM (inactive) |  | > 100 µM (inactive) | > 100 µM (inactive) | 
Cc1cc(O)c2c3c1C(=O)Oc1c(CO)c(O)c(C(=O)O)c(c1O3)C=NN=Cc1c3c(c(CO)c(O)c1C(=O)O)OC(=O)c1c(C)cc(O)c(c1O3)C=NN=C2 | > 100 µM (inactive) | 51.5 µM (inactive) | > 100 µM (inactive) | > 100 µM (inactive) |  | > 100 µM (inactive) | > 100 µM (inactive) | > 100 µM (inactive) | > 100 µM (inactive)
CO[C@H](c1ccccc1)[C@H](C)N(C)c1ccc2ccccc2c1C1=NC(C)(C)CO1 |  | 12.1 µM (inactive) | 13 µM (inactive) | 17.1 µM (inactive) | 15 µM (inactive) | 14.9 µM (inactive) | 13.4 µM (inactive) | 15.3 µM (inactive) | 17.1 µM (inactive)
N#Cc1c(-c2ccc(Cl)c(Cl)c2)c(-c2ccc(Cl)c(Cl)c2)nn(CC(=O)O)c1=O | > 100 µM (inactive) |  | 63.5 µM (inactive) | 27.9 µM (inactive) | 64.9 µM (inactive) | 72.4 µM (inactive) | 24.2 µM (inactive) | > 100 µM (inactive) | 64.3 µM (inactive)
Nc1nc(N)c2cc(CNc3ccc(C(=O)NC(CC(=O)O)C(=O)O)c(Cl)c3)ccc2n1 (stereo not given) | 56 µM (inactive) | < 0.01 µM (active) | 0.038 µM (active) |  |  |  | 0.117 µM (active) | 0.596 µM (active) | > 100 µM (inactive)
N#C/C(=C\c1c(O)cc(O)cc1O)C(N)=O | > 100 µM (inactive) | > 100 µM (inactive) | > 100 µM (inactive) | > 100 µM (inactive) | > 100 µM (inactive) | > 100 µM (inactive) | > 100 µM (inactive) |  | 
C=C1C(O)C2(O)OCC34C(CC5C(C)=CC(=O)C(O)C5(C)C23)OC(=O)C(OC(=O)C/C=C(\C)CCCCC)C14 (stereo not given) | 0.0145 µM (active) | 0.0125 µM (active) | 0.0146 µM (active) | 0.0153 µM (active) |  |  | 0.0149 µM (active) | 0.0136 µM (active) | 0.0343 µM (active)
O/N=C1/C(=C/c2ccc(Cl)c(Cl)c2)CCCC1C(NO)c1ccc(Cl)c(Cl)c1 (stereo not given) | 18.7 µM (inactive) | 17.9 µM (inactive) | 16.9 µM (inactive) | 16.3 µM (inactive) |  | 15.7 µM (inactive) | 17.9 µM (inactive) | 18.2 µM (inactive) | 16.3 µM (inactive)
O=C1CCC2(CC1)SCCCS2 |  | > 100 µM (inactive) | > 100 µM (inactive) | > 100 µM (inactive) |  | > 100 µM (inactive) | > 100 µM (inactive) | > 100 µM (inactive) | 
C/C(=N/N)c1ccc2[nH]c3c(C)cc([N+](=O)[O-])c(C)c3c2c1 |  | 9.89 µM (inactive) | 3.18 µM (inactive) | 11.4 µM (inactive) |  |  |  | 11.3 µM (inactive) | 10.7 µM (inactive)
O=c1c(-c2cccc3ccccc23)c(-c2cccc3ccccc23)c1=O | 1.95 µM (inactive) | 2.1 µM (inactive) | 3.28 µM (inactive) | 2.27 µM (inactive) |  | 3.05 µM (inactive) | 0.379 µM (active) | 3.07 µM (inactive) | 39.8 µM (inactive)
COC(=O)CC(NC(=O)OCc1ccccc1)C(C(=O)OCc1ccccc1)C1(C)OCCO1 (stereo not given) |  | 23.6 µM (inactive) | 36.1 µM (inactive) | 15.8 µM (inactive) | 34.9 µM (inactive) | 18.8 µM (inactive) | 45.5 µM (inactive) | 30.2 µM (inactive) | 
CC1=C(C(=O)Nc2cc(=O)n(C)c(=O)n2C)C(c2cccc([N+](=O)[O-])c2)C(C(=O)Nc2cc(=O)n(C)c(=O)n2C)=C(C)N1 | > 100 µM (inactive) | 80.5 µM (inactive) | > 100 µM (inactive) |  |  | > 100 µM (inactive) | > 100 µM (inactive) | > 100 µM (inactive) | 
CCOC(=O)CSc1nnc(CSc2nc(-c3ccccc3)c(-c3ccccc3)[nH]2)n1-c1ccccc1 | 27.9 µM (inactive) | 15.3 µM (inactive) | > 100 µM (inactive) | 24.3 µM (inactive) |  | 21.1 µM (inactive) | 27.7 µM (inactive) | 38.8 µM (inactive) | 
O=NN(CCCl)C(=O)N[C@H]1CC[C@H](CC(=O)O)CC1 | > 100 µM (inactive) | 61.9 µM (inactive) | > 100 µM (inactive) | > 100 µM (inactive) |  | > 100 µM (inactive) | > 46.5 µM (inactive) | > 100 µM (inactive) | > 78.7 µM (inactive)
COc1ccc([N+]2=NC(c3ccc([N+](=O)[O-])cc3)=NN(c3ccccc3)C2)cc1.[O-][Cl+3]([O-])([O-])[O-] | > 100 µM (inactive) | 40.6 µM (inactive) | 34.9 µM (inactive) | 53.6 µM (inactive) |  | 47.3 µM (inactive) | 58.9 µM (inactive) |  | 
O=C(CC1(O)C(=O)Nc2c(Cl)cc(Cl)cc21)c1cccc([N+](=O)[O-])c1 (stereo not given) | 41.5 µM (inactive) | 21.5 µM (inactive) | 43.2 µM (inactive) | 20.7 µM (inactive) | 24.8 µM (inactive) | 15.1 µM (inactive) | 52.1 µM (inactive) | 5.14 µM (inactive) | 32.3 µM (inactive)
Cn1ccnc1CCc1c(Cl)cccc1Cl | > 100 µM (inactive) | > 100 µM (inactive) | > 100 µM (inactive) |  |  | > 100 µM (inactive) | > 100 µM (inactive) | > 100 µM (inactive) | 51.4 µM (inactive)
Cc1cc(Cl)cc2c1NC(=O)C2(O)CC(=O)c1ccc(Br)cc1 (stereo not given) |  | 34.8 µM (inactive) | 50.8 µM (inactive) | 30.2 µM (inactive) | > 71.3 µM (inactive) | 68.9 µM (inactive) | > 91.4 µM (inactive) | 22.5 µM (inactive) | 
CCOC(=O)c1c[nH]c2c(ccc3nn(C)nc32)c1=O | 15.5 µM (inactive) | 49.8 µM (inactive) | 50.4 µM (inactive) | > 100 µM (inactive) | > 100 µM (inactive) | > 100 µM (inactive) | > 100 µM (inactive) | > 100 µM (inactive) | > 100 µM (inactive)
Cc1c(Cl)c2ccccc2n1S(=O)(=O)c1ccccc1 |  | 37.9 µM (inactive) | 71.6 µM (inactive) | > 100 µM (inactive) |  | 42.1 µM (inactive) | 26.5 µM (inactive) |  | 
C/C(CC(=O)Nc1ccccc1C)=N/NS(=O)(=O)c1ccc(C)cc1 | > 100 µM (inactive) |  | > 100 µM (inactive) | > 100 µM (inactive) | > 100 µM (inactive) | > 100 µM (inactive) | > 100 µM (inactive) | > 100 µM (inactive) | 
COc1cc2c(cc1OC(=O)CC(C)O)C1C(OC2=O)C(OC(C)=O)C=C2CCN(C)[C@H]21 (stereo not given in full) | 20.7 µM (inactive) |  | 69 µM (inactive) | 20.1 µM (inactive) | 31 µM (inactive) | 82.4 µM (inactive) | > 100 µM (inactive) | 78.9 µM (inactive) | 26.9 µM (inactive)
